Assay results as given in the NIST ThermoML archive (doi:10.1016/j.tca.2013.03.025).

Experiment: xn = mol fraction of the nth substance listed
Conditions: 101 kPa, Liquid; for viscosity: Concentric cylinders viscometry; for mass density: Vibrating tube method

CCCCOC(=O)C(C)O (stereo not given) [butyl 2-hydroxypropanoate] + CC(O)CO
Conditions	mass density [kg/m3]	viscosity [mPa·s]
288.15 K, x1 = 0.0999	1028.94	49.57
288.15 K, x1 = 0.2	1020.52	32.76
288.15 K, x1 = 0.3	1014.01	22.44
288.15 K, x1 = 0.3999	1008.69	16.49
288.15 K, x1 = 0.4998	1004.11	12.5
288.15 K, x1 = 0.6	999.883	9.662
288.15 K, x1 = 0.6996	996.116	7.754
288.15 K, x1 = 0.7999	992.836	6.357
288.15 K, x1 = 0.9	990.017	5.352
288.15 K, x1 = 1	987.269	4.628
293.15 K, x1 = 0.0999	1025.09	36.74
293.15 K, x1 = 0.2	1016.49	24.82
293.15 K, x1 = 0.3	1009.81	17.35
293.15 K, x1 = 0.3999	1004.36	12.96
293.15 K, x1 = 0.4998	999.672	9.963
293.15 K, x1 = 0.6	995.344	7.814
293.15 K, x1 = 0.6996	991.481	6.325
293.15 K, x1 = 0.7999	988.111	5.256
293.15 K, x1 = 0.9	985.199	4.454
293.15 K, x1 = 1	982.366	3.88
298.15 K, x1 = 0.0999	1021.19	27.81
298.15 K, x1 = 0.2	1012.41	19.18
298.15 K, x1 = 0.3	1005.65	13.58
298.15 K, x1 = 0.3999	1000	10.3
298.15 K, x1 = 0.4998	995.208	8.084
298.15 K, x1 = 0.6	990.768	6.393
298.15 K, x1 = 0.6996	986.821	5.252
298.15 K, x1 = 0.7999	983.363	4.394
298.15 K, x1 = 0.9	980.366	3.772
298.15 K, x1 = 1	977.448	3.307
303.15 K, x1 = 0.0999	1017.29	21.45
303.15 K, x1 = 0.2	1008.34	15.08
303.15 K, x1 = 0.3	1001.42	10.86
303.15 K, x1 = 0.3999	995.637	8.42
303.15 K, x1 = 0.4998	990.737	6.606
303.15 K, x1 = 0.6	986.189	5.339
303.15 K, x1 = 0.6996	982.143	4.426
303.15 K, x1 = 0.7999	978.595	3.741
303.15 K, x1 = 0.9	975.512	3.226
303.15 K, x1 = 1	972.515	2.86
308.15 K, x1 = 0.0999	1013.34	16.82
308.15 K, x1 = 0.2	1004.23	12.05
308.15 K, x1 = 0.3	997.153	8.886
308.15 K, x1 = 0.3999	991.238	6.935
308.15 K, x1 = 0.4998	986.236	5.542
308.15 K, x1 = 0.6	981.583	4.506
308.15 K, x1 = 0.6996	977.444	3.772
308.15 K, x1 = 0.7999	973.812	3.212
308.15 K, x1 = 0.9	970.644	2.796
308.15 K, x1 = 1	967.567	2.481
313.15 K, x1 = 0.0999	1009.36	13.4
313.15 K, x1 = 0.2	1000.07	9.766
313.15 K, x1 = 0.3	992.852	7.317
313.15 K, x1 = 0.3999	986.813	5.772
313.15 K, x1 = 0.4998	981.71	4.666
313.15 K, x1 = 0.6	976.954	3.848
313.15 K, x1 = 0.6996	972.719	3.25
313.15 K, x1 = 0.7999	969.003	2.791
313.15 K, x1 = 0.9	965.755	2.449
313.15 K, x1 = 1	962.603	2.181
318.15 K, x1 = 0.0999	1005.34	10.83
318.15 K, x1 = 0.2	995.893	8.021
318.15 K, x1 = 0.3	988.531	6.099
318.15 K, x1 = 0.3999	982.364	4.873
318.15 K, x1 = 0.4998	977.162	3.982
318.15 K, x1 = 0.6	972.304	3.319
318.15 K, x1 = 0.6996	967.975	2.828
318.15 K, x1 = 0.7999	964.179	2.449
318.15 K, x1 = 0.9	960.848	2.163
318.15 K, x1 = 1	957.624	1.935
323.15 K, x1 = 0.0999	1001.29	8.864
323.15 K, x1 = 0.2	991.678	6.665
323.15 K, x1 = 0.3	984.178	5.141
323.15 K, x1 = 0.3999	978.01	4.159
323.15 K, x1 = 0.4998	972.59	3.435
323.15 K, x1 = 0.6	967.647	2.889
323.15 K, x1 = 0.6996	963.208	2.483
323.15 K, x1 = 0.7999	959.336	2.166
323.15 K, x1 = 0.9	955.922	1.924
323.15 K, x1 = 1	952.631	1.728
